{"source": "ChEMBL document CHEMBL4177718", "about": "“Discovery of molecular mechanism of a clinical herbal formula upregulating serum HDL-c levels in treatment of metabolic syndrome by in vivo and computational studies” (2018)", "data": [{"species_on_record": "Rattus norvegicus", "assay": "Up-regulation of ABCA1 protein expression in serum of Wistar rat model of metabolic syndrome fed with high-sugar-fat-diet for 15 weeks followed by high-fat emulsion for 2 weeks by ELISA", "format": "functional", "values": [{"smiles": "CCOc1ccc(-c2cc(=O)c3ccc(N)cc3o2)cc1", "fold change (FC)": 1.37}, {"smiles": "CCOc1ccc(/C=C/C(=O)c2ccc(N)cc2OC)cc1", "fold change (FC)": 1.06}, {"smiles": "CCc1ccc(/C=C/C(=O)c2ccc(N)cc2O)cc1", "fold change (FC)": 1.73}, {"smiles": "Cc1ccc(-c2cc(=O)c3ccc(N)cc3o2)o1", "fold change (FC)": 1.3}, {"smiles": "COc1cccc(/C=C/C(=O)c2ccc(N)cc2O)c1", "fold change (FC)": 2.09}, {"smiles": "COc1ccc(-c2ccc(-c3cc(=O)c4ccc(O)cc4o3)s2)cc1", "fold change (FC)": 1.03}, {"smiles": "O=c1cc(-c2ccc3ccccc3n2)oc2cc(O)ccc12", "fold change (FC)": 1.36}, {"smiles": "O=c1cc(-c2c[nH]c3ccccc23)oc2cc(O)ccc12", "fold change (FC)": 1.9}, {"smiles": "Nc1ccc(C(=O)/C=C/c2cc(C(F)(F)F)cc(C(F)(F)F)c2)c(O)c1", "fold change (FC)": 1.12}, {"smiles": "O=C(O)c1ccc(-c2cc(=O)c3ccc(O)cc3o2)cc1", "fold change (FC)": 1.66}, {"smiles": "CC(C)c1ccc(-c2cc(=O)c3ccc(O)cc3o2)cc1", "fold change (FC)": 1.22}, {"smiles": "Nc1ccc(C(=O)/C=C/c2cccc(Oc3ccccc3)c2)c(O)c1", "fold change (FC)": 1.76}, {"smiles": "COc1cc(/C=C/C(=O)c2ccc(N)cc2O)cc(OC)c1OC", "fold change (FC)": 0.98}, {"smiles": "COc1ccc(-c2ccc(/C=C/C(=O)c3ccc(N)cc3O)s2)cc1", "fold change (FC)": 1.09}, {"smiles": "O=c1cc(-c2cccc(Oc3ccccc3)c2)oc2cc(O)ccc12", "fold change (FC)": 1.17}, {"smiles": "Nc1ccc(C(=O)/C=C/c2ccc3ccccc3c2)c(O)c1", "fold change (FC)": 2.64}, {"smiles": "Nc1ccc(C(=O)/C=C/c2ccc(F)cc2)c(O)c1", "fold change (FC)": 1.36}, {"smiles": "O=c1cc(-c2ccc(-c3ccccc3)cc2)oc2cc(O)ccc12", "fold change (FC)": 1.15}, {"smiles": "Nc1ccc(C(=O)/C=C/c2csc3ccccc23)c(O)c1", "fold change (FC)": 2.31}, {"smiles": "Cc1ccc(/C=C/C(=O)c2ccc(N)cc2O)s1", "fold change (FC)": 2}, {"smiles": "Cc1ccc(-c2cc(=O)c3ccc(N)cc3o2)s1", "fold change (FC)": 1.47}, {"smiles": "COc1cc(N(C)C)ccc1C(=O)/C=C/c1ccc2ccccc2c1", "fold change (FC)": 1.35}, {"smiles": "O=c1cc(-c2ccc3ccccc3c2)oc2cc(O)ccc12", "fold change (FC)": 1.57}, {"smiles": "COc1cc(N)ccc1C(=O)/C=C/c1ccc(C)o1", "fold change (FC)": 1.2}, {"smiles": "CSc1ccc(/C=C/C(=O)c2ccc(N)cc2O)cc1", "fold change (FC)": 1.26}, {"smiles": "CC(=O)Nc1ccc(C(=O)/C=C/c2ccc(C)s2)c(O)c1", "fold change (FC)": 1.08}, {"smiles": "Cc1ccc(/C=C/C(=O)c2ccc(N)cc2O)o1", "fold change (FC)": 2.09}, {"smiles": "COc1cc(N)ccc1C(=O)/C=C/c1ccc(C)s1", "fold change (FC)": 1.5}, {"smiles": "O=c1cc(-c2csc3ccccc23)oc2cc(O)ccc12", "fold change (FC)": 1.44}, {"smiles": "CCOc1ccc(/C=C/C(=O)c2ccc(N)cc2O)cc1", "fold change (FC)": 1.92}, {"smiles": "COc1ccc(/C=C/C(=O)c2ccc(N)cc2O)cc1OC", "fold change (FC)": 1.86}, {"smiles": "Cc1ccc(CCC(=O)c2ccc(N)cc2O)o1", "fold change (FC)": 1.9}, {"smiles": "Nc1ccc(C(=O)CCc2ccc3ccccc3c2)c(O)c1", "fold change (FC)": 1.34}, {"smiles": "COc1cc(N)ccc1C(=O)/C=C/c1ccc2ccccc2c1", "fold change (FC)": 0.88}, {"smiles": "COc1cc(N(C)C)ccc1C(=O)/C=C/c1ccc(C)o1", "fold change (FC)": 1.57}, {"smiles": "Cc1ccc(/C=C/C(=O)c2ccc(N(C)C)cc2O)o1", "fold change (FC)": 1.02}, {"smiles": "Nc1ccc(C(=O)/C=C/c2ccc3c(c2)OCO3)c(O)c1", "fold change (FC)": 1.92}, {"smiles": "Nc1ccc(C(=O)/C=C/c2c[nH]c3ccccc23)c(O)c1", "fold change (FC)": 1.76}, {"smiles": "Nc1ccc(C(=O)/C=C/c2ccc(Cl)cc2)c(O)c1", "fold change (FC)": 1.16}, {"smiles": "CC(C)c1ccc(/C=C/C(=O)c2ccc(N)cc2O)cc1", "fold change (FC)": 2.05}, {"smiles": "Nc1ccc(C(=O)/C=C/c2ccc(-c3ccccc3)cc2)c(O)c1", "fold change (FC)": 1.55}]}]}
